Series [1] relates to cancer cells HeLa and 4T1 and normal cells HEK293. As to the kind of experiment: Selectivity for tumor cells (red fluorescence intensity in cancer vs normal cells). The following applies: 4T1 vs HEK293, 1 μM, 30 min; for fluorescence intensity, cancer cells vs normal cells, complete medium / selectivity for cancer cells: complete medium (serum-containing). The class given is cell-based. How it is done:
(§1) Cancer cells HeLa and 4T1 and normal cells HEK293 were cultured using a complete medium (DMEM medium containing 10% fetal bovine serum and 1% penicillin/streptomycin) in a saturated-humidity incubator at 37 °C and 5% CO2, and passaged once every 2 to 3 days.
(§2) When the cells grew to the logarithmic phase, they were transferred to confocal dishes or 96-well plates: Cells fully grown in a T25 cell culture flask were first washed with PBS, and then digested with 1 mL of trypsin for 1 to 2 minutes (0.25% trypsin for HeLa and 4T1, and 0.025% trypsin for HEK293). After removal of trypsin, fresh medium was added, and the cells were pipetted uniformly and counted, whose density was controlled by the amount of medium added. (1) The cells were inoculated into a confocal glass-bottom culture dish, and was cultured in a 5% CO2 incubator.When the cells grew to a coverage of ~70% they were used for confocal imaging experiments. (2) The cells were inoculated into a low-attachment U-bottom 96-well plate, and when the diameter of the cell spheroids reached ~800 μm, the cell spheroids were used for antitumor evaluation.
After three groups of cancer cells HeLa and 4T1 and normal cells HEK293 individually grown on confocal glass-bottom culture dishes prepared in Test example 1 were washed with PBS, one group was incubated in complete medium (serum-containing) with 1 μM of the compound synthesized in Example 1 in the dark for 30 min, and the second group was incubated in complete medium with 1 μM of (E)-4-(2-(5-methoxy-1H-indol-3-yl)vinyl)-1-n-octylquinolinium iodide in the dark for 30 min, and the third group was incubated in DMEM (serum-free)with 1 μM of the compound synthesized in Example 1 in the dark for 30 min. After PBS washing, all the cells were placed in DMEM, and differences in red fluorescence intensity from the three groups of tumor cells and normal cells were observed and recorded under a laser scanning confocal microscope (EX561 nm, EM600-700 nm).

In a further series the test system is HeLa cells. Kind of series: Verification of how compound enters cells (37 °C vs 4 °C). The class given is cell-based. The following applies: 2 μM, 30 min, complete medium; for way of entering cells: 37 °C vs 4 °C. How it is done:
as §1, §2
After two groups of HeLa cells grown on confocal glass-bottom culture dishes prepared in Test example 1 were washed with PBS, one group was incubated at 37 °C in the dark for 30 min in complete medium with 2 μM of the compound synthesized in Example 1, and the other group was incubated at 4 °C for the same period in complete medium with 2 μM of compound synthesized in Example 1. After PBS washing, the incubated cells were placed in DMEM, and red fluorescence distribution in cells from the two groups was observed and recorded using a laser scanning confocal microscope (EX561 nm, EM600-700 nm).
After two groups of HeLa cells grown on confocal glass-bottom culture dishes prepared in Test example 1 were washed with PBS, one group was incubated in complete medium with 2 μM of (E)-4-(2-(5-methoxy-1H-indol-3-yl)vinyl)-1-n-octylquinolinium iodide in the dark at 37 °C for 30 min, and the other group was incubated in complete medium solution with 2 μM (E)-4-(2-(5-methoxy-1H-indol-3-yl)vinyl)-1-n-octylquinolinium iodide in the dark at 4 °C for the same period. After PBS washing, the cells were placed in DMEM, and red fluorescence in cells from the two groups was observed and recorded using a laser scanning confocal microscope (EX561 nm, EM600-700 nm).

The next series deals with HeLa cell spheroids. As to the kind of experiment: Changes in growth of HeLa cell spheroids. The class given is cell-based. The following applies: 10 μM, 24 h. How it is done:
as §1, §2
After two groups of HEK293 cell spheroids and two groups of HeLa cell spheroids prepared in Test example 1 were photographed under a microscope, one group of HEK293 and HeLa cell spheroids was incubated in a complete medium containing 10 μM of the compound synthesized in Example 1 as an experimental administration group, and the other group of HEK293 and HeLa cell spheroids was incubated in a complete medium containing the same volume of DMSO as a blank control. After 24 h, photographs were taken again using the microscope to observe changes in morphology and size of the cell spheroids.

Series [2] concerns HeLa cells (fusion of mitochondria and lysosomes). Kind of series: Fusion of mitochondria and lysosomes in HeLa cells (MitoTracker Green / LysoBrite NIR). The class given is cell-based. The following applies: compound 10 μM in complete medium, ~5 h. How it is done:
as §1
as §2, with “(2) The cells were inoculated into a low-attachment U-bottom 96-well plate, and when the diameter of the cell spheroids reached ~800 μm, the cell spheroids were used for antitumor evaluation.” left out
After two groups of HeLa cells grown on confocal glass-bottom culture dishes prepared in Test example 1 were washed with PBS, both were incubated with 1 μM mitochondrial green fluorescent probe (MitoTracker Green) in the dark for 30 min, followed by 30 min incubation with 1 μM lysosomal deep-red probe (LysoBrite NIR). […] The fluorescence distribution of MitoTracker Green and LysoBrite NIR in cells from the two groups was recorded.

For another series, the system named is HEK293 cell spheroids. Kind of series: Changes in growth of HEK293 cell spheroids. The class given is cell-based. The following applies: 10 μM, 24 h. How it is done:
as §1
as §2, with “evaluation. […]” for “evaluation.”

Series [3] concerns HeLa cells (mitochondria and lysosomes). Kind of series: Localization observation in HeLa cells (colocalization with MitoTracker Green and LysoBrite NIR). The class given is cell-based. The note with it: 2 μM, 30 min, confocal colocalization. The protocol: as §1
as §2, with “evaluation. […]” for “evaluation.”

For another series, the target named is bovine serum albumin (Bos taurus, UniProt P02769). Kind of series: Binding constant with albumin (fluorescence quenching, double-logarithmic fitting). How it is done: The compound synthesized in Example 1 was added at different concentrations (0 to 15 μM) to PBS containing bovine serum albumin, and then fluorescence spectra of bovine serum albumin were measured using a fluorescence spectrometer (280 nm EX).
Sequence of bovine serum albumin (P02769 25-607): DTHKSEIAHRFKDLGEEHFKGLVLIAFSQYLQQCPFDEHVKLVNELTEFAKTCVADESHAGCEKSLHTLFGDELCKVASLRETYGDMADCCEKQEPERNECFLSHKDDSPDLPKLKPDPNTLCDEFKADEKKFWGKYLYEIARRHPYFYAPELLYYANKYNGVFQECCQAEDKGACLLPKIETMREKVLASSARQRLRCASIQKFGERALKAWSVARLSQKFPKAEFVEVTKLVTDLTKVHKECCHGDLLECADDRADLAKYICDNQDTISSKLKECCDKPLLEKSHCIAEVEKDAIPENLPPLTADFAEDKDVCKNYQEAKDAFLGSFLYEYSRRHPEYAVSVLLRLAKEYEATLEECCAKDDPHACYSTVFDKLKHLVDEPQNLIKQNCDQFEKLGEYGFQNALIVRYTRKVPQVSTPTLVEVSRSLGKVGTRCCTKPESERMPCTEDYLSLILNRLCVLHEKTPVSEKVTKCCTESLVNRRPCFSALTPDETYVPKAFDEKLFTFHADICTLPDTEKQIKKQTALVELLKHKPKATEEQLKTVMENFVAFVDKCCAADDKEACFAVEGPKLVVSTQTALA

Series [4] relates to HeLa cells (mitochondrial membrane potential). Kind of series: Changes in mitochondrial membrane potential of HeLa cells (rhodamine 123). The class given is cell-based. The following applies: 10 μM, 30 min, vs DMSO blank control. How it is done:
as §1
as §2, with “(2) The cells were inoculated into a low-attachment U-bottom 96-well plate, and when the diameter of the cell spheroids reached ~800 μm, the cell spheroids were used for antitumor evaluation.” left out
Two groups of HeLa cells grown on confocal glass-bottom culture dishes prepared in Test example 1 were both incubated with 5 μM rhodamine 123 in darkness in a CO2 incubator for 30 min and then washed with PBS. […] After PBS washing, the cells were observed under a laser scanning confocal microscope, and the changes of the fluorescence brightness from rhodamine 123 in the two groups of cells were recorded.

For a further series, the system named is HeLa cells (autophagy). Kind of series: Imaging of autophagic vacuoles and autophagosomes in HeLa cells (Cell-Tracker Green CMFDA). The class given is cell-based. The note with it: 10 μM, 90 min. How it is done:
as §1, §2
Two groups of HeLa cells grown on confocal glass-bottom culture dishes prepared in Test example 1 were firstly washed with PBS. Then one group was incubated in the dark for 90 min in complete medium with 10 μM of the compound synthesized in Example 1, and the other group was incubated in complete medium with an equal amount of DMSO as a blank control sample. Subsequently, the cells were incubated in DMEM with 5 μM green live-cell tracking probe (Cell-Tracker Green CMFDA) for 30 min. After PBS washing, the cells were placed in DMEM and observed under a laser scanning confocal microscope. The fluorescence distribution of Cell-Tracker Green in cells from the two groups was recorded.
After HeLa cells grown on confocal glass-bottom culture dish prepared in Test example 1 was washed with PBS, they were incubated in complete medium with 10 μM of the compound synthesized in Example 2 in the dark for 90 min, and then incubated in DMEM with 5 μM green live-cell tracking probe (Cell-Tracker Green CMFDA) in the dark for 30 min followed by PBS washing. The cells were placed in DMEM and observed under a laser scanning confocal microscope. The fluorescence distribution of Cell-Tracker Green in the cells was recorded.

For series [5], the system named is HeLa cells (lysosomal pH). As to the kind of experiment: Changes in lysosomal pH of HeLa cells (LysoSensor Green DND-189). The class given is cell-based. The following applies: 10 μM, 30 min, vs DMSO blank control. The protocol: as §1
as §2, with “(2) The cells were inoculated into a low-attachment U-bottom 96-well plate, and when the diameter of the cell spheroids reached ~800 μm, the cell spheroids were used for antitumor evaluation.” left out
Two groups of HeLa cells grown on confocal glass-bottom culture dishes prepared in Test example 1 were incubated with 2 μM lysosomal green fluorescent probe (LysoSensor Green DND-189) in the dark for 30 min in a CO2 incubator, and then washed with PBS. […] The changes in the fluorescence brightness of LysoSensor Green in cells from the two groups were recorded.

Turning to `CCCCCCCC[n+]1ccc(/C=C/c2c[nH]c3ccc(OC)cc23)c2ccccc21.[I-]` [(E)-4-(2-(5-methoxy-1H-indol-3-yl)vinyl)-1-n-octylquinolinium iodide, reference compound], in series [1], the “fluorescence intensity, cancer cells vs normal cells, complete medium” value was “no significant difference in fluorescence intensity between cancer cells and normal cells”; the “selectivity for cancer cells” value is “non-selective for cancer cells”. Further, in the series with HeLa cells, the “way of entering cells” value is reported as “enters cells mainly via free diffusion rather than active transport” and the “red fluorescence at 37 °C compared with 4 °C” value is “no obvious difference in fluorescence intensity”.

In the case of `CCCCCCCCCCCC[n+]1ccc(/C=C/c2c[nH]c3ccc(OC)cc23)c2ccccc21.[I-]` [Example 1, (E)-4-(2-(5-methoxy-1H-indol-3-yl)vinyl)-1-n-dodecylquinolinium iodide], in series [1] (DMEM (serum-free)), the “fluorescence intensity, cancer cells vs normal cells, serum-free” value was “almost no difference in fluorescence intensity between cancer cells and normal cells”. Moreover, in [1], the “fluorescence intensity, cancer cells vs normal cells, complete medium” value is given as “the fluorescence intensity of cancer cells is significantly higher than the fluorescence intensity of normal cells” and the “selectivity for cancer cells” value is “high selectivity for cancer cells”. For the same molecule, the “entry into cancer cells vs normal cells, serum-free” value in series [1] (serum-free medium) is on record as “no significant difference”. In addition, in the series on HeLa cell spheroids, the “cell debris near HeLa cell spheroids” value is “many cell debris appear near the cell spheroids”; the “growth of cancerous HeLa cell spheroids” value was “significantly inhibits and disrupts the growth”. Further, the “size of HeLa cell spheroids” value with HeLa cell spheroids (vs blank control and before administration) is “much smaller than those in the blank control as well as than the cell spheroids before drug administration”. Moreover, in the series with HeLa cell spheroids (HeLa vs HEK293 cell spheroids), the “selective killing effect on cancer cells” value is on record as “significant selective killing effect on cancer cells”. In addition, in [2], the “fusion of mitochondria and lysosomes / autophagic flux” value is “can prevent fusion of cellular mitochondria and lysosomes and block autophagic flux”; the “overlap of mitochondrial and lysosomal fluorescence” value is recorded as “almost no overlap”. For the same molecule, the “growth inhibition of normal HEK293 cell spheroids” value in the series on HEK293 cell spheroids was “does not cause significant growth inhibition”. For the same molecule, the “size and shape of HEK293 cell spheroids” value in the series on HEK293 cell spheroids (vs blank control) was “do not change significantly compared with the blank control”. In the series on HeLa cells, the “way of entering cells” value is given as “enters cells mainly via active transport” and the “red fluorescence at 37 °C compared with 4 °C” value is on record as “significantly stronger”. In addition, the “distribution of compound fluorescence in organelles” value in [3] was “distributed in the two organelles, mitochondria and lysosomes”. Besides, the “fluorescence peak of bovine serum albumin” value at bovine serum albumin (PBS, compound 0 to 15 μM, 280 nm EX) was “gradually decreases”. At bovine serum albumin (bovine serum albumin in PBS), the affinity for albumin result is listed as “high affinity for albumin”. Also, at bovine serum albumin (bovine serum albumin in PBS, compound 0 to 15 μM, 280 nm EX, double-logarithmic fit), the “binding constant with albumin” value is 1.35×10^8. In series [4], the “fluorescence of rhodamine 123” value is recorded as “greatly weakened” and the mitochondrial membrane potential entry is reported as “decreases significantly”. Also, in the series on HeLa cells (autophagy), the “autophagy activation / modulation” value was “can activate autophagy”; the “generation of vacuoles (autophagic vacuoles/vesicles and autophagosomes) in the cytoplasm” value is “a large number of vacuoles (autophagic vacuoles and autophagosomes) are generated”. Besides, in series [5], the “fluorescence of LysoSensor Green” value is recorded as “greatly weakened” and the “lysosomal pH” value is given as “increases significantly”.

Regarding `CCCCCCCCCCCC[n+]1ccc(/C=C/c2c[nH]c3ccccc23)c2ccccc21.[I-]` [Example 2, (E)-4-(2-(1H-indol-3-yl)vinyl)-1-n-dodecylquinolinium iodide], the “distribution of compound fluorescence in organelles” value in [3] is “distributed in the two organelles, mitochondria and lysosomes”. Also, in the series with HeLa cells (autophagy), the “autophagy activation / modulation” value was “autophagy-modulating activity”; the “generation of vacuoles (autophagic vacuoles/vesicles and autophagosomes) in the cytoplasm” value is “a large number of vacuoles (autophagic vesicles and autophagosomes) are generated”.

The record behind these values is patent publication US20260337176A1, “AUTOPHAGY REGULATOR AND USE THEREOF” (SHENZHEN INSTITUTES OF ADVANCED TECHNOLOGY, CHINESE ACADEMY …, priority 2023, published 2026).
